Experimental data from US10472356B2, “Bicyclic ketone sulfonamide compounds” (AMGEN INC., priority 2015, dated 2019).

Key:
human Nav1.7 [1] = molecular target: T1, human Nav1.7 (Homo sapiens, UniProt Q15858); assay: Nav 1.7 IWQ In Vitro Assay (IonWorks Quattro); assay type: cell-based; conditions: HEK293 cells stably transfected with human Nav 1.7; IonWorks Quattro population patch-clamp; 26th pulse to −20 mV, 5 Hz; cells unclamped 5 to 8 minutes with compound; read-out: hNav1.7 IWQ IC50
T1 construct: expressed in transfected cells; host or cells: HEK293
T1 sequence (Q15858 whole entry): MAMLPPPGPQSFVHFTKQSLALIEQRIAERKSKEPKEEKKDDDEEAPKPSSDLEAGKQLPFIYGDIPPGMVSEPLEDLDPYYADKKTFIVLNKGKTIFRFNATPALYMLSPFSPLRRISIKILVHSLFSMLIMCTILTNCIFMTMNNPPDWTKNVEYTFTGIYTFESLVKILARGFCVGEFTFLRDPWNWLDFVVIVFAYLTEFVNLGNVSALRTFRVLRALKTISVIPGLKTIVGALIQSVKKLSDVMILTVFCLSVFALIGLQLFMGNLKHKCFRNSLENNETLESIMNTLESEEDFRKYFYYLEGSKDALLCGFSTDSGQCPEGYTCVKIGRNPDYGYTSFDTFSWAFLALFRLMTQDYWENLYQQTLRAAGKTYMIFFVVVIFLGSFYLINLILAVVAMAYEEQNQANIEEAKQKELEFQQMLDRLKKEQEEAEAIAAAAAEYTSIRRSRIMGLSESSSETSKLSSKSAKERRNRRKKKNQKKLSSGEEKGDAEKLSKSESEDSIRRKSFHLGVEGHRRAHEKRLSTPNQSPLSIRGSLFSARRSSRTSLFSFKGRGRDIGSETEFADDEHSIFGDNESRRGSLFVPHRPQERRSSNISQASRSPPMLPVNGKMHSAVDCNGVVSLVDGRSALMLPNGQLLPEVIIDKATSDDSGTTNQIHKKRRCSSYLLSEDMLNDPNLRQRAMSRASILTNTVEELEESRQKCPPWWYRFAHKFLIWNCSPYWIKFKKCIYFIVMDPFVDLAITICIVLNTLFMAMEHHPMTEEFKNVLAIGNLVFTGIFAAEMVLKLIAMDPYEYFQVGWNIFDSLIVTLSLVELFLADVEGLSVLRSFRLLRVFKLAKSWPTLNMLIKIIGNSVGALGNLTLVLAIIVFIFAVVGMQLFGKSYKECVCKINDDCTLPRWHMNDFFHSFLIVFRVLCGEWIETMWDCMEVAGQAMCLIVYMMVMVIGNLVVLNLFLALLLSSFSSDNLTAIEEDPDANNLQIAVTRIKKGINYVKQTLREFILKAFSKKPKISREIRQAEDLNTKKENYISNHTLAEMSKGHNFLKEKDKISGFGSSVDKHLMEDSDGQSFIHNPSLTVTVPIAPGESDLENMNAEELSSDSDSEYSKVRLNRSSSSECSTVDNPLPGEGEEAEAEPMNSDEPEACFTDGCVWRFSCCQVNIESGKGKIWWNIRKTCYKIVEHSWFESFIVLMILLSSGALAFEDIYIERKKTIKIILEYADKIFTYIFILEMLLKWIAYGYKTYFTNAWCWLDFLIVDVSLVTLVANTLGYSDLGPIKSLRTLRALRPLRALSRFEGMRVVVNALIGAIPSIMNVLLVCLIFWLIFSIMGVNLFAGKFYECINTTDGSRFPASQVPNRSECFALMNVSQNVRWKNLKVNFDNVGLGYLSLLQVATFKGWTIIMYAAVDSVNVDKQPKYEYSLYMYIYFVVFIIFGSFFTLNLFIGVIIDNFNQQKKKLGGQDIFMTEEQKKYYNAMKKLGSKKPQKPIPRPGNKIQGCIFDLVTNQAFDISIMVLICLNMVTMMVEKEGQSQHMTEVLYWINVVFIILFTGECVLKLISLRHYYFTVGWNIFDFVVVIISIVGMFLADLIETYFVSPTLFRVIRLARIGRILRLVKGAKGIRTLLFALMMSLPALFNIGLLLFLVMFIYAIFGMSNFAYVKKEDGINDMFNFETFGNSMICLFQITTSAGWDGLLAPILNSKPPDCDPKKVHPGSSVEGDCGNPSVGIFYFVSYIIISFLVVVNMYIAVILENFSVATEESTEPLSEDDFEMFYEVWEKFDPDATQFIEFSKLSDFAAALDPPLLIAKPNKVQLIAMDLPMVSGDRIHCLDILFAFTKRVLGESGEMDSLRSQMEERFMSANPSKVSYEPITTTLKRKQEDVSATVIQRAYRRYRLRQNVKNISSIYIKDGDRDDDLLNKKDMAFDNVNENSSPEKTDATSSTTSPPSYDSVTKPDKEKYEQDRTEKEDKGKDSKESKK
Experimental: Nav 1.7 or Nav 1.5 IWQ In Vitro Assay
HEK293 cells stably transfected with either human Nav 1.7 or human Nav 1.5 were recorded in population patch-clamp mode with the IonWorks® Quattro automated electrophysiology system (Molecular Devices, LLC, Sunnyvale, Calif.). Cells were voltage clamped to −110 mV for three seconds (Nav 1.7) or half a second (Nav 1.5) and sodium currents were elicited by a train of 26 depolarizations of 150 msec duration to −20 mV (Nav 1.7) or 0 mV (Nav 1.5) at a frequency of 5 Hz. Cells were then left unclamped for a period of 5 to 8 minutes while a single concentration of test compound was added. Following this compound incubation period, cells were then reclamped to −110 mV for three seconds (Nav1.7) or half a second (Nav1.5) to recover unbound channels and put through the same 26 pulse voltage protocol as above. Peak inward current during the 26th pulse to −20 mV (Nav 1.7) or 0 mV (Nav 1.5) in the presence of compound was divided by the peak inward current evoked by the 26th pulse to −20 mV (Nav1.7) or 0 mV (Nav1.5) in the absence of compound to determine percent inhibition. Concentration-response curves of percent.

human Nav1.7 [2] = molecular target: T1, human Nav1.7; assay: Nav 1.7 IWB In Vitro Assay (IonWorks Barracuda); assay type: cell-based; conditions: HEK293 cells stably transfected with human Nav 1.7; IonWorks Barracuda population patch-clamp; cells clamped to −20 mV for 4 minutes with compound; 26th pulse; read-out: hNav1.7 IWB IC50
Method in brief: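 Population patch clamp of HEK293 cells stably expressing human Nav 1.7: 26 pulses to −20 mV (150 ms, 5 Hz) from −110 mV, then 4 min at −20 mV with compound, 3 s recovery at −110 mV and the train repeated. % inhibition of 26th-pulse peak current vs no compound; IC50 from concentration-response curves.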

COc1cc(CCC(F)(F)F)c(Cl)cc1-n1c2c(ccc1=O)CN(S(=O)(=O)Nc1cccnn1)CC2 (single isomer, unassigned) [Example 96-P, P-1-(5-chloro-2-methoxy-4-(3,3,3-trifluoropropyl)phenyl)-2-oxo-N-(pyridazin-3-yl)-1,2,7,8-tetrahydro-1,6-naphthyridine-6(5H)-sulfonamide]
IC50 (human Nav1.7 [1]): 9 nM
IC50 (human Nav1.7 [2]): 33.9 nM

COc1cc(-c2cc(F)c(F)c(OC)c2)c(F)cc1-n1c2c(ccc1=O)CN(S(=O)(=O)Nc1cccnn1)CC2 [Example 79, P-2-oxo-N-(pyridazin-3-yl)-1-(2,3′,4′-trifluoro-5,5′-dimethoxy-[1,1′-biphenyl]-4-yl)-1,2,7,8-tetrahydro-1,6-naphthyridine-6(5H)-sulfonamide]
IC50 (human Nav1.7 [1]): 3.9 nM
IC50 (human Nav1.7 [2]): 2.6 nM

COc1cc(-c2cnc(OC)c(C(F)(F)F)c2)c(F)cc1-n1c2c(ccc1=O)CN(S(=O)(=O)Nc1cccnn1)CC2 [Example 80, P-1-(5-fluoro-2-methoxy-4-(6-methoxy-5-(trifluoromethyl)pyridin-3-yl)phenyl)-2-oxo-N-(pyridazin-3-yl)-1,2,7,8-tetrahydro-1,6-naphthyridine-6(5H)-sulfonamide]
IC50 (human Nav1.7 [1]): 5.4 nM
IC50 (human Nav1.7 [2]): 13.9 nM

COc1cc(-c2ccc(F)c(OC(F)(F)F)c2)c(F)cc1-n1c2c(ccc1=O)CN(S(=O)(=O)Nc1cccnn1)CC2 [Example 81, P-1-(2,4′-difluoro-5-methoxy-3′-(trifluoromethoxy)-[1,1′-biphenyl]-4-yl)-2-oxo-N-(pyridazin-3-yl)-1,2,7,8-tetrahydro-1,6-naphthyridine-6(5H)-sulfonamide]
IC50 (human Nav1.7 [1]): 3.9 nM
IC50 (human Nav1.7 [2]): 8.6 nM

COc1cc(-c2ccc(OC)c(C(F)(F)F)c2)c(F)cc1-n1c2c(ccc1=O)CN(S(=O)(=O)Nc1cccnn1)CC2 [Example 82, P-1-(2-fluoro-4′,5-dimethoxy-3′-(trifluoromethyl)-[1,1′-biphenyl]-4-yl)-2-oxo-N-(pyridazin-3-yl)-1,2,7,8-tetrahydro-1,6-naphthyridine-6(5H)-sulfonamide]
IC50 (human Nav1.7 [1]): 15.6 nM
IC50 (human Nav1.7 [2]): 25.8 nM

COc1cc(-c2cc(OC)c(-n3c4c(ccc3=O)CN(S(=O)(=O)Nc3cccnn3)CC4)cc2F)cc(C(F)(F)F)c1 [Example 83, P-1-(2-fluoro-3′,5-dimethoxy-5′-(trifluoromethyl)-[1,1′-biphenyl]-4-yl)-2-oxo-N-(pyridazin-3-yl)-1,2,7,8-tetrahydro-1,6-naphthyridine-6(5H)-sulfonamide]
IC50 (human Nav1.7 [1]): 3.4 nM
IC50 (human Nav1.7 [2]): 5.1 nM

COc1cc(-c2cc(F)cc(C(F)F)c2)c(F)cc1-n1c2c(ccc1=O)CN(S(=O)(=O)Nc1cccnn1)CC2 [Example 84, P-1-(3′-(difluoromethyl)-2,5′-difluoro-5-methoxy-[1,1′-biphenyl]-4-yl)-2-oxo-N-(pyridazin-3-yl)-1,2,7,8-tetrahydro-1,6-naphthyridine-6(5H)-sulfonamide]
IC50 (human Nav1.7 [1]): 8.3 nM
IC50 (human Nav1.7 [2]): 17.1 nM

COc1cc(-c2ccc(F)c(C(F)F)c2)c(F)cc1-n1c2c(ccc1=O)CN(S(=O)(=O)Nc1cccnn1)CC2 [Example 85, P-1-(3′-(difluoromethyl)-2,4′-difluoro-5-methoxy-[1,1′-biphenyl]-4-yl)-2-oxo-N-(pyridazin-3-yl)-1,2,7,8-tetrahydro-1,6-naphthyridine-6(5H)-sulfonamide]
IC50 (human Nav1.7 [1]): 4.3 nM
IC50 (human Nav1.7 [2]): 17.4 nM

COc1cc(-c2cc(F)c(F)c(C(F)F)c2)c(F)cc1-n1c2c(ccc1=O)CN(S(=O)(=O)Nc1cccnn1)CC2 [Example 86, P-1-(3′-(difluoromethyl)-2,4′,5′-trifluoro-5-methoxy-[1,1′-biphenyl]-4-yl)-2-oxo-N-(pyridazin-3-yl)-1,2,7,8-tetrahydro-1,6-naphthyridine-6(5H)-sulfonamide]
IC50 (human Nav1.7 [1]): 7.1 nM
IC50 (human Nav1.7 [2]): 14.3 nM

COc1cc(-c2ccc(C(F)F)c(F)c2)c(F)cc1-n1c2c(ccc1=O)CN(S(=O)(=O)Nc1cccnn1)CC2 [Example 87, P-1-(4′-(difluoromethyl)-2,3′-difluoro-5-methoxy-[1,1′-biphenyl]-4-yl)-2-oxo-N-(pyridazin-3-yl)-1,2,7,8-tetrahydro-1,6-naphthyridine-6(5H)-sulfonamide]
IC50 (human Nav1.7 [1]): 12.4 nM
IC50 (human Nav1.7 [2]): 19 nM
